US8404651B2, “Compositions and methods for treating viral infections” (priority 2008, dated 2013)
Where “and” joins values, the source holds several entries; their conditions need not be identical. Equal values may be shown once. Read-outs that look alike come from different tables or passages of the source.

What was measured:
[1] = test system: HCV replicon cell line, AVA5; assay: Cytotoxicity by neutral red dye uptake in replicon cultures in parallel plates; conditions: read-out: Control 2 (μM) CC50; genotype 1B
Experimental: (§1) Primary anti-HCV assay-Antiviral activity against HCV was assessed in a 3-day assay (Okuse, et al., 2005; Antiviral. Res. 65:23; Korba, et al., 2008, Antiviral Res. 77:56) using the stably-expressing HCV replicon cell line, AVA5 [sub-genomic (CON1), genotype 1b](Blight, et al., 2000, Science 290:1972) maintained as sub-confluent cultures on 96-well plates. Antiviral activity was determined by blot hybridization analysis of intracellular HCV RNA (normalized to the level of cellular B-actin RNA in each culture sample). Cytotoxicity was assessed by neutral red dye uptake in cultures maintained in parallel plates.
(§2) EC50, EC90, and CC50 values were calculated by linear regression analysis (MS EXCEL®, QUATTROPRO®) using data combined from all treated cultures Korba & Gerin, 1992, Antivir. Res. 19:55; Okuse, et al., 2005, Antivir. Res. 65:23). Standard deviations for EC50 and EC90 values were calculated from the standard errors generated by the regression analyses. […] The Selectivity index (S.I.) was calculated as CC50/EC50. Recombinant human interferon 2b (PBL laboratories, Inc.) was used as an assay control.
(§3) For each combination of agents, three concentration ratios, centered on the use of the compounds at equipotent antiviral concentrations, were used. A dilution series (six three-fold-concentration steps, beginning at the approximate EC90) was then generated with the concentration ratio of the two agents remaining the same in each dilution step. Toxicity analysis was performed as described above for the monotherapies. Analysis of drug interactions in the combination studies was determined by the use of the […] program (Biosoft, Inc., Cambridge, United Kingdom). This program evaluates synergy, additivity, or antagonism by use of several methodologies, including that of Chou and Talalay with a statistical analysis employing the Monte Carlo technique to provide confidence limits, fraction-affected-confidence interval (FA-CI) plots, isobolograms, and median-effect plots. (Belenkii, M. S. Schinazi, R. A method for the analysis of combination therapies with statistical analysis. Antiviral Res. 25, 11, 2005).

[2] = test system: HCV replicon cell line, AVA5 [sub-genomic (CON1), genotype 1b]; assay: microbe, parasite or virus in culture; format: cell-based; conditions: genotype 1B; for EC50: read-out: Control 2 (μM) EC50; for EC90: read-out: Control 2 (μM) EC90
Experimental: as §1, §2, §3

[3] = test system: replicon cell line containing H/FL-Neo (genotype 1a (H77), full length construct); assay: Secondary anti-HCV assay: genotype 1a replicon, format of the primary assay; format: cell-based; conditions: genotype 1a replicon
From the text: Res. 19:55; Okuse, et al., 2005, Antivir. Res. 65:23).
Secondary anti-HCV assay—This assay assesses activity against different HCV genotypes using the format described for the primary assay. Activity against the genotype 1b HCV is included for comparison. Currently available is a replicon cell line containing H/FL-Neo (genotype 1a (H77), full length construct) (Blight, et al., 2003, J. Virol. 77:3181).

[4] = test system: TA1535; assay: In vitro bacterial mutagenicity assay (pre-incubation), strain TA1535; conditions: positive control; for Number of revertants x1, x2, x3: individual plates; for Fold response: vs vehicle control
Experimental: (§4) Dispense 100 microliter aliquots of the appropriate bacterial cultures into sample tubes stored on ice. Dispense aliquots of the vehicle, positive controls or dose formulations into the appropriate sample tubes. 2 mL top Agar and HBT cap was added to the sample tube, inverted three times and poured into MG plate. The lid was replaced on the plate and left on a level surface to let the agar harden. The plates were incubated in an incubator for 48 to 72 h. The background lawn and count the number of revertants was checked for each plate.

[5] = test system: WP2 uvrA; assay: In vitro bacterial mutagenicity assay (pre-incubation), strain WP2 uvrA; conditions: positive control, S9 +, 15 μg/plate
Experimental: as §4

[6] = test system: TA98; assay: In vitro bacterial mutagenicity assay (pre-incubation), strain TA98; conditions: positive control, TA98, S9 0, 1 μg/plate
Experimental: as §4

[7] = test system: TA1537; assay: In vitro bacterial mutagenicity assay (pre-incubation), strain TA1537; conditions: positive control, TA1537, S9 0, 10 μg/plate
Experimental: as §4

[8] = test system: TA100; assay: In vitro bacterial mutagenicity assay (pre-incubation), strain TA100; conditions: positive control, TA100, S9 0, 0.5 μg/plate
Experimental: as §4

[9] = Cytotoxicity by neutral red dye uptake in replicon cultures in parallel plates; conditions: human, AVA5 HCV replicon cells (sub-genomic CON1, genotype 1b)
Experimental: as §1, §2, §3

## C[C@@]1(O)[C@H](O)[C@@H](CO)O[C@H]1n1ccc(N)nc1=O [2′CmeCyt]
[1]
  CC50: > 300 µM
[2]
  EC50: 1.4 µM
  EC90: 5.3 µM

## COC1C(OP(=O)(OC[C@H]2O[C@@H](n3cnc4c(N)ncnc43)CC2O)SCOC(=O)C(C)(C)C)[C@@H](CO)O[C@H]1n1ccc(=O)[nH]c1=O (some centres unmarked) [Compound 1]
[3]; 2-fold depression of intracellular HCV RNA, read-out: EC50 HCV Type 1A
  EC50: 2900 nM
[3]; 10-fold depression of intracellular HCV RNA, read-out: EC90 HCV type 1A
  EC90: 8500 nM

## Nc1ccc2cc3ccccc3cc2c1 [Compound 2AA, reference compound]
[4]; TA1535, S9 +, 5 μg/plate
  Number of revertants mean: 254
  Number of revertants x1, x2, x3: 263 and 242 and 257
  Fold response: 11
[5]
  Number of revertants mean: 373
[5]; individual plates
  Number of revertants x1, x2, x3: 476 and 357 and 285
[5]; vs vehicle control
  Fold response: 9.6

## O=[N+]([O-])c1ccc2c(c1)Cc1ccccc1-2 [Compound 2NF, reference compound]
[6]
  Number of revertants mean: 139
[6]; individual plates
  Number of revertants x1, x2, x3: 151 and 114 and 153
[6]; vs vehicle control
  Fold response: 4.5

## Nc1c2ccccc2nc2ccccc12 [Compound 9AC, reference compound]
[7]
  Number of revertants mean: 741
[7]; individual plates
  Number of revertants x1, x2, x3: 728 and 910 and 585
[7]; vs vehicle control
  Fold response: 57

## [N-]=[N+]=[N-].[Na+] [NaAz, reference compound]
[4]; TA1535, S9 0, 0.5 μg/plate
  Number of revertants mean: 321
  Number of revertants x1, x2, x3: 340 and 312 (2×)
  Fold response: 12
[8]
  Number of revertants mean: 560
[8]; individual plates
  Number of revertants x1, x2, x3: 568 and 569 and 543
[8]; vs vehicle control
  Fold response: 5.0

## CCC[C@H](NC(=O)[C@@H]1[C@H]2CCC[C@H]2CN1C(=O)[C@@H](NC(=O)[C@@H](NC(=O)c1cnccn1)C1CCCCC1)C(C)(C)C)C(=O)C(=O)NC1CC1 [VX-950]
[9]
  CC50 at 3 day: 88000 nM
[2]; Hepatitis C virus, Ava5
  EC50: 0.249 µM
  EC90: 0.892 µM
